These results are taken from patent US20180049995A1, “HIF-2-ALPHA INHIBITOR POLYMORPHS” (PELOTON THERAPEUTICS, INC., priority 2015, published 2018).

In brackets after ≈: the same amount, converted by molar mass. Like-named read-outs stand apart in the source and are kept apart here. Where only a bound is given, the exact number is not on record here.

Format in all cases: physicochemical
A short description of series [1]: Competitive slurries of Form A and Form B (XRPD). On the procedure: Slurry experiments were performed at ambient, 40° C. and 60° C. temperatures using 2-propanol, tert-butyl methyl ether, toluene and ethanol as solvents.
Saturated solutions of 2-propanol, tert-butylmethyl ether, toluene and ethanol were prepared at ambient temperature. ca. 25 mg of Form A and Form B were weighed into a vial to create 50 mg 50:50 wt/wt mixture of the two batches. The appropriate solvent was added to the mixture and the resulting slurry was stirred for 48 h at ambient temperature, before the solid was analyzed by XRPD.
Saturated solutions of 2-propanol, tert-butylmethyl ether, toluene and ethanol were prepared at 40° C. ca. 25 mg of Form A and Form B were weighed into a vial to create 50 mg 50:50 wt/wt mixture of the two batches. The appropriate solvent was added to the mixture and the resulting slurry was stirred for 48 h at 40° C., before the solid was analyzed by XRPD.
Saturated solutions of 2-propanol, toluene and ethanol were prepared at 60° C. ca. 25 mg of Form A and Form B were weighed into a vial to create 50 mg 50:50 wt/wt mixture of the two batches. The appropriate solvent was added to the mixture and the resulting slurry was stirred for 48 h at 60° C., before the solid was analyzed by XRPD.

The nature of series [2]: 7-Day stability study (XRPD and HPLC after storage). The procedure: The stability of Forms A and B were measured following storage for 7-days at ambient, 40° C./75% RH and 80° C. About 15 mg of Forms A and B were individually placed in each of 3 vials and stored uncapped for 7 days under the following conditions; ambient, 40° C./75% RH, 80° C. Following the 7 days, XRPD analysis was performed on each sample to determine its form and crystallinity and HPLC analysis was conducted to determine the sample purity.

The nature of series [3]: Aqueous solubility (24 h mixing, filtrate by HPLC). To be noted: thermodynamic from solid. The procedure: The aqueous solubility of several lots of Forms A and B were measured. […] The sample was filtered using a syringe filter and the filtrate was analyzed by HPLC to determine the solubility. The remaining solid was analysis by XRPD to determine its form and crystallinity. Solubility data for micronized materials was also collected. As noted in Table 3, slight variations in aqueous solubility were noted, particularly for the micronized samples.

Series [4] in a line: Solubility screen for Form A in organic solvents. The procedure:
A solubility screen for Form A was conducted in 24 solvents. About 5 mg of Form A was placed in each of 24 vials and 5 volume aliquots of the appropriate solvent systems listed in Table 1 were added to the appropriate vial. Between each addition, the mixture was checked for dissolution by visual inspection, and if no dissolution was apparent, the mixture was heated to ca. 40° C. and checked again. This procedure was continued until dissolution was observed or until 100 volumes of solvent had been added.
Form A appeared to be highly soluble (above ˜100 mg/mL) in a number of solvents, […] diisopropyl ether, heptane and toluene. These solvents were identified as possible anti-solvents for the primary polymorph screen. Additional solvent/water mixtures suitable for freeze drying were tested.

Regarding `CS(=O)(=O)c1ccc(Oc2cc(F)cc(C#N)c2)c2c1[C@H](O)C(F)(F)C2` (mixture of isomers) [50:50 wt/wt mixture, (S)-3-((2,2-difluoro-1-hydroxy-7-(methylsulfonyl)-2,3-dihydro-1H-inden-4-yl)oxy)-5-fluorobenzonitrile], the “Form by XRPD after competitive slurry” value in series [1] (2-Propanol, 40° C., 48 h) was “Form B”; in series [1] (2-Propanol, 60° C., 48 h, footnote: Primarily Form B) it was “Mixture^a”; in series [1] (2-Propanol, Ambient, 48 h), “Form B”; in series [1] (Ethanol, 40° C., 48 h), “Form B”; in series [1] (Ethanol, 60° C., 48 h, footnote: primarily Form A with some Form B present) it was “Mixture^b”; in series [1] (Ethanol, Ambient, 48 h) it was “Form B”. For the same compound, the “Form by XRPD after competitive slurry” value in series [1] (Ethanol, Repeat 60° C., only Form B observed) is listed as “Form B^b”; in series [1] (TBME, 40° C., 48 h), “Form B”; in series [1] (TBME, Ambient, 48 h), “Form B”; in series [1] (Toluene, 40° C., 48 h) it was “Form B”; in series [1] (Toluene, 60° C., 48 h), “Form B”; in series [1] (Toluene, Ambient, 48 h), “Form B”.

Take `CS(=O)(=O)c1ccc(Oc2cc(F)cc(C#N)c2)c2c1[C@H](O)C(F)(F)C2` [Form B, (S)-3-((2,2-difluoro-1-hydroxy-7-(methylsulfonyl)-2,3-dihydro-1H-inden-4-yl)oxy)-5-fluorobenzonitrile]: the “Thermodynamic stability of the form (conclusion of competitive slurries)” value in series [1] (all solvents, ambient, 40° C. and 60° C.) is “the most thermodynamically form”. Also, in series [2] (7 days at 80° C., drop from 99.7%), the “Purity by HPLC after storage” value was 99.3%. Moreover, the Crystallinity after storage result in series [2] (7 days, over the three conditions (ambient, 40° C./75% RH, 80° C.)) was “maintained crystallinity”.

For the compound `CS(=O)(=O)c1ccc(Oc2cc(F)cc(C#N)c2)c2c1[C@H](O)C(F)(F)C2` [Form A, (S)-3-((2,2-difluoro-1-hydroxy-7-(methylsulfonyl)-2,3-dihydro-1H-inden-4-yl)oxy)-5-fluorobenzonitrile], the solubility at 24 h in series [3] (fassif, Fasted State Simulated Small Intestinal Fluid, read-out: Aqueous Solubility FaSSIF) is 0.063 mg/mL (≈ 0.164 mM); in series [3] (fessif, Fed State Simulated Small Intestinal Fluid, read-out: Aqueous Solubility FeSSIF), 0.086 mg/mL (≈ 0.224 mM); in series [3] (pH 1.2, simulated gastric fluid, pH 1.2, read-out: Aqueous Solubility pH 1.2) it was 0.029 mg/mL (≈ 0.0756 mM); in series [3] (pH 6.5, aqueous buffer, pH 6.5, read-out: Aqueous Solubility pH 6.5), 0.025 mg/mL (≈ 0.0652 mM); in series [3] (pH 7.4, aqueous buffer, pH 7.4, read-out: Aqueous Solubility pH 7.4), 0.026 mg/mL (≈ 0.0678 mM). For the same compound, the solubility is above 200 mg/mL in series [4] (40 °C, organic solvent or mixture, thermodynamic from solid, 1,4-Dioxane, solubility observed at 40° C., read-out: Solubility); above 200 mg/mL in series [4] (40 °C, organic solvent or mixture, thermodynamic from solid, Acetonitrile, solubility observed at 40° C., read-out: Solubility); above 2 mg/mL in series [4] (40 °C, organic solvent or mixture, thermodynamic from solid, Diisopropyl ether, solubility observed at 40° C., read-out: Solubility); 160 mg/mL (≈ 417 mM) in series [4] (40 °C, organic solvent or mixture, thermodynamic from solid, Methyl isobutyl ketone, solubility observed at 40° C., read-out: Solubility); below 2 mg/mL in series [4] (aqueous with cosolvent or surfactant or cyclodextrin, thermodynamic from solid, Acetone: Water (60%), read-out: Solubility); below 2 mg/mL in series [4] (aqueous with cosolvent or surfactant or cyclodextrin, thermodynamic from solid, Ethanol: Water (50%), read-out: Solubility). Further, the solubility in series [4] (aqueous with cosolvent or surfactant or cyclodextrin, thermodynamic from solid, Methanol: Water (50%), read-out: Solubility) was below 2 mg/mL; in series [4] (aqueous with cosolvent or surfactant or cyclodextrin, thermodynamic from solid, THF: Water (50%), read-out: Solubility), 100 mg/mL (≈ 261 mM); in series [4] (organic solvent or mixture, thermodynamic from solid, 2-Propanol, read-out: Solubility) it was 9 mg/mL (≈ 23.5 mM); in series [4] (organic solvent or mixture, thermodynamic from solid, Acetone: Water (5%), read-out: Solubility), above 200 mg/mL; in series [4] (organic solvent or mixture, thermodynamic from solid, Acetone: Water (20%), read-out: Solubility), above 200 mg/mL; in series [4] (organic solvent or mixture, thermodynamic from solid, Acetone, read-out: Solubility), above 200 mg/mL. Also, the solubility in series [4] (organic solvent or mixture, thermodynamic from solid, Acetonitrile: Water (10%), read-out: Solubility) is above 200 mg/mL; in series [4] (organic solvent or mixture, thermodynamic from solid, Dichloromethane, read-out: Solubility), 80 mg/mL (≈ 209 mM); in series [4] (organic solvent or mixture, thermodynamic from solid, Dimethylformamide, read-out: Solubility) it was above 200 mg/mL; in series [4] (organic solvent or mixture, thermodynamic from solid, Dimethylsulfoxide, read-out: Solubility), 160 mg/mL (≈ 417 mM); in series [4] (organic solvent or mixture, thermodynamic from solid, Ethanol, read-out: Solubility), 60 mg/mL (≈ 157 mM); in series [4] (organic solvent or mixture, thermodynamic from solid, Ethyl acetate, read-out: Solubility), 160 mg/mL (≈ 417 mM). In addition, the solubility was below 2 mg/mL in series [4] (organic solvent or mixture, thermodynamic from solid, Heptane, read-out: Solubility); 90 mg/mL (≈ 235 mM) in series [4] (organic solvent or mixture, thermodynamic from solid, Isopropyl acetate, read-out: Solubility); 90 mg/mL (≈ 235 mM) in series [4] (organic solvent or mixture, thermodynamic from solid, Methanol, read-out: Solubility); above 200 mg/mL in series [4] (organic solvent or mixture, thermodynamic from solid, Methyl acetate, read-out: Solubility); above 200 mg/mL in series [4] (organic solvent or mixture, thermodynamic from solid, Methylethyl ketone, read-out: Solubility); 130 mg/mL (≈ 339 mM) in series [4] (organic solvent or mixture, thermodynamic from solid, N-Methyl-2-pyrrolidone, read-out: Solubility). Also, the solubility in series [4] (organic solvent or mixture, thermodynamic from solid, Tetrahydrofuran, read-out: Solubility) is above 200 mg/mL; in series [4] (organic solvent or mixture, thermodynamic from solid, Toluene, read-out: Solubility), above 2 mg/mL; in series [4] (organic solvent or mixture, thermodynamic from solid, in a number of solvents, read-out: Solubility (highly soluble)), above 100 mg/mL; in series [4] (organic solvent or mixture, thermodynamic from solid, tert-Butylmethyl ether, read-out: Solubility) it was 35 mg/mL (≈ 91.3 mM); in series [4] (water, thermodynamic from solid, Water, read-out: Solubility), below 2 mg/mL. Moreover, the Solubility in words result in series [4] (THF:Water (50%), separation into API-saturated THF layer and API-free aqueous layer observed) is recorded as “Sufficient solubility”; in series [4] (water (hydrophobic behavior observed), diisopropyl ether, heptane and toluene), “insoluble”. The Crystallinity after storage result in series [2] (7 days at 80° C.) was “appeared to lose crystallinity”. Further, the “Form change by XRPD after storage” value in series [2] (7 days uncapped, ambient, 40° C./75% RH, 80° C.) is recorded as “no signs of form change”. The “Purity by HPLC after storage” value in series [2] (7 days, over all three conditions (ambient, 40° C./75% RH, 80° C.)) is 99.0%.

One may read the solubility as the dissolved amount per volume that the medium holds.
